US20260103465A1, “GLYCOGEN SYNTHASE KINASE 3 INHIBITORS AND USES THEREOF” (The Broad Institute, Inc., priority 2023, published 2026)
Like-named read-outs stand apart in the source and are kept apart here.

What was measured:
[1] = biological target: T1, GSK3a (GST-full length GSK3a) (Homo sapiens, UniProt P49840); experiment: GSK3a TR-FRET kinase inhibition assay; type: biochemical
T1 construct: GST-full length GSK3a [SignalChem G08-10G]; purchased SignalChem G08-10G
How it was run: (§1)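 IC50 derived from normalized 665/615 TR-FRET signal (Tb anti-pSer641 antibody, streptavidin-d2), read after EDTA stop. Reaction: 1 nM GST-full-length enzyme, 30 min compound pre-incubation, 100 min at ambient temperature in Tris pH 7.5 with 1% DMSO, 200 nM biotinylated primed glycogen synthase peptide, ATP 2 μM to 1 mM.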

[2] = biological target: T2, GSK3b (GST-full length GSK3b) (Homo sapiens, UniProt P49841); experiment: GSK3b TR-FRET kinase inhibition assay; type: biochemical
T2 construct: GST-full length GSK3b: [SignalChem G08-9G]; purchased SignalChem G08-9G
How it was run: as §1

[3] = Human liver microsomal stability; type: in vitro ADME; details: human liver microsomes
Description: Stability of compound (5 μL of a 10 mM DMSO solution) in human liver microsomes was tested in duplicate by incubating compound at 1 μM for 60 minutes at 37° C. Compound level at 60 minutes was compared to level at 0 minutes, and percent remaining was calculated. Order by selecting Microsomal Stability in Prometheus, checking boxes for desired species. Assay Controls: microsomes with NADPH without compound-matrix interference. Microsomes plus compound without NADPH—non-enzymatic instability.

[4] = test system: MDR1-MDCK cell monolayers; experiment: MDR1/MDCK permeability assay; type: in vitro ADME; details: for MDCK Permeability (MDR1-MDCK); Mean; Papp(A-B) (10^−6 cm/s): A to B; for MDCK Permeability (MDR1-MDCK); Mean; Papp(B-A) (10^−6 cm/s): B to A; for MDCK Permeability (MDR1-MDCK); Mean; P. Ratio(B-A/A-B) Efflux Ratio / MIDCK Permeability (MDR1-MDCK); Mean; P. Ratio(B-A/A-B) Efflux Ratio: Papp B-A/A-B
Text: The MDR1/MDCK assay is run at WuXi and Absorption Systems. This assay is used to determine the blood-brain barrier (BBB) penetration potential of a test compound using MDR1-MDCK cell monolayers. Catalog number EA203.
• The percent recovery of the test compound from the Transwell® wells containing MDR1-MDCK cell monolayers • The apparent permeability (Papp) in both directions • The efflux ratio (Papp B to A)/(Papp A to B) • The blood-brain barrier penetration potential classification: • High when • Papp A to B≥3.0×10^−6 cm/s, and efflux<3.0 • Moderate when • Papp A to B≥3.0×10^−6 cm/s, and 10>efflux≥3.0 • Low when either • Papp A to B≥3.0×10^−6 cm/s, and […], or when • Papp A to B<[…].
• Test compound at 5 μM in HBSSg with maximum DMSO concentration not greater than 1%.
• Confluent monolayers of MDR1-MDCK cells, 7 to 11 days old.
• Receiver well with 1% BSA in modified Hanks buffer (HBSSg) • Apical and basolateral side at pH 7.4 • Dose two monolayers in each direction (N=2) • Dose apical side for (A to B) assessment • Dose basolateral side for (B to A) assessment • Sample both apical and basolateral sides at 120 minutes • Determine the concentrations of test compound using a generic LC-MS/MS method with a minimum 4 point calibration curve.
• The quality of the cell monolayer batch is verified using control compounds before monolayers are released for use • The quality of each monolayer used in the assay is verified by a TEER measurement and by calculating the Papp for a control compound.

[5] = 4 μM ATP, read-out: GSK3α TR-FRET 4 μM ATP GMean IC50
[6] = 1 mM ATP, Table 4, read-out: GSK3α TR-FRET 1 mM ATP GMean IC50
[7] = 2 μM ATP, read-out: GSK3β TR-FRET 2 μM ATP GMean IC50
[8] = 1 mM ATP, Table 4, read-out: GSK3β TR-FRET 1 mM ATP GMean IC50
[9] = 10 μM ATP, read-out: GSK3a 10 μM ATP Average IC50
[10] = 100 μM ATP, read-out: GSK3a 100 μM ATP Average IC50
[11] = 1 mM ATP, Table 3, read-out: GSK3a TR-FRET 1 mM ATP Average IC50
[12] = 10 μM ATP, read-out: GSK3b 10 μM ATP Average IC50
[13] = 100 μM ATP, read-out: GSK3b 100 μM ATP Average IC50
[14] = 1 mM ATP, Table 3, read-out: GSK3b TR-FRET 1 mM ATP Average IC50

T1 sequence (P49840 whole entry): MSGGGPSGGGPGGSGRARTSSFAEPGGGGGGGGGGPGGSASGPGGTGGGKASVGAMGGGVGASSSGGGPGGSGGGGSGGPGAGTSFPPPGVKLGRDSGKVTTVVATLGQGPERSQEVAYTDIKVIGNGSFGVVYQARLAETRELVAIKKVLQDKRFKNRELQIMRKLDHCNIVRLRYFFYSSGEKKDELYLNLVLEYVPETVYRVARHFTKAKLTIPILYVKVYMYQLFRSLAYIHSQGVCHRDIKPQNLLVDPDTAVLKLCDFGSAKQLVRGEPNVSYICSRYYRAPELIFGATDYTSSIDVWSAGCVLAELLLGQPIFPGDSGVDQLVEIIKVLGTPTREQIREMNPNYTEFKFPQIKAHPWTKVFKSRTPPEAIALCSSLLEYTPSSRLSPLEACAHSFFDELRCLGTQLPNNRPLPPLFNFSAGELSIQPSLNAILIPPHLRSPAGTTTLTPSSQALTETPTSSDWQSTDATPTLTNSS
T2 sequence (P49841 whole entry): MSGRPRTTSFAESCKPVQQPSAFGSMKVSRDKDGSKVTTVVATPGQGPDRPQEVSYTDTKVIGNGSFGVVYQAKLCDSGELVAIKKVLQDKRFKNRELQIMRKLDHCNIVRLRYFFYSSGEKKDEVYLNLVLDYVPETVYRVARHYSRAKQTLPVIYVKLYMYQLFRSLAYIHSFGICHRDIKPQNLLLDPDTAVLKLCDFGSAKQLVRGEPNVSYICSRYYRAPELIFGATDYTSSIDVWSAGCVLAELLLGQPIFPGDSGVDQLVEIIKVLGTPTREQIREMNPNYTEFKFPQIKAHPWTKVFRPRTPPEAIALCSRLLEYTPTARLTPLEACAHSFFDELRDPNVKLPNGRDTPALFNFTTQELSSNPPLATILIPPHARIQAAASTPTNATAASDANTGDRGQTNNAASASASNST

| Structure (SMILES) | IC50 [1, 5] | IC50 [1, 6] | IC50 [2, 7] | IC50 [2, 8] | Microsome Stability (Human) (DMPK_BIIB); Mean; in vitro t1/2 ([3]; Table 4) | MDCK Permeability (MDR1-MDCK); Mean; Papp(A-B) (10^−6 cm/s) ([4]; Table 4) | MDCK Permeability (MDR1-MDCK); Mean; Papp(B-A) (10^−6 cm/s) ([4]; Table 4) | MDCK Permeability (MDR1-MDCK); Mean; P. Ratio(B-A/A-B) Efflux Ratio ([4]; Table 4) | IC50 [1, 9] | IC50 [1, 10] | IC50 [1, 11] | IC50 [2, 12] | IC50 [2, 13] | IC50 [2, 14] | Microsome Stability (Human) (DMPK_BIIB); Mean; in vitro t1/2 ([3]; Table 3) | MDCK Permeability (MDR1-MDCK); Mean; Papp(A-B) (10^−6 cm/s) ([4]; Table 3) | MDCK Permeability (MDR1-MDCK); Mean; Papp(B-A) (10^−6 cm/s) ([4]; Table 3) | MIDCK Permeability (MDR1-MDCK); Mean; P. Ratio(B-A/A-B) Efflux Ratio ([4]; Table 3) |
| --- | --- | --- | --- | --- | --- | --- | --- | --- | --- | --- | --- | --- | --- | --- | --- | --- | --- | --- |
| CCC1(c2ccccc2)C2=C(CC(C)(C)CC2=O)Nc2ncccc21 (single isomer, unassigned) [102 A] | ≤ 0.1 µM | 1 to 5 µM | ≤ 0.1 µM | 5 to 20 µM | 9.1 min | 8.7 10^−6 cm/s | 26 10^−6 cm/s | 2.9 |  |  |  |  |  |  |  |  |  |  |
| CCC1(c2ccccc2)C2=C(CC(C)(C)CC2=O)Nc2ncccc21 (single isomer, unassigned) [102 B] | > 5 µM |  | > 5 µM |  | 1.2 min | 6.7 10^−6 cm/s | 29 10^−6 cm/s | 4.3 |  |  |  |  |  |  |  |  |  |  |
| CCC1(c2cccc(-c3ccnc(C)c3C)c2)C2=C(CC(C)(C)CC2=O)Nc2ncccc21 (single isomer, unassigned) [147 B] | ≤ 0.1 µM | 0.1 to 1 µM | ≤ 0.1 µM | 1 to 5 µM | 14 min | 8.1 10^−6 cm/s | 31 10^−6 cm/s | 3.8 |  |  |  |  |  |  |  |  |  |  |
| CC1(C)CC(=O)C2=C(C1)Nc1ncccc1C2(C)c1ccccc1 (single isomer, unassigned) [Compound 101A] |  |  |  |  |  |  |  |  | ≤ 0.1 µM | 0.1 to 1 µM | 1 to 5 µM | ≤ 0.1 µM | 0.1 to 1 µM | 1 to 5 µM | 37 min | 30 10^−6 cm/s | 22 10^−6 cm/s | 0.72 |
| CCC1(c2ccccc2)C2=C(CC(C)(C)CC2=O)Nc2ncccc21 (single isomer, unassigned) [Compound 102A] |  |  |  |  |  |  |  |  | ≤ 0.1 µM | 0.1 to 1 µM | 1 to 5 µM | ≤ 0.1 µM | 0.1 to 1 µM | 1 to 5 µM | 14 min | 22 10^−6 cm/s | 19 10^−6 cm/s | 0.87 |
| CC1(C)CC(=O)C2=C(C1)Nc1ncc(F)cc1C2(C)c1ccccc1 (single isomer, unassigned) [Compound 107B] |  |  |  |  |  |  |  |  |  |  | 1 to 5 µM |  |  | 1 to 5 µM | 94 min | 30 10^−6 cm/s | 18 10^−6 cm/s | 0.61 |
| CCC1(c2ccccc2)C2=C(CC3(CCC3)CC2=O)Nc2ncccc21 (single isomer, unassigned) [Compound 110A] |  |  |  |  | 5.4 min | 22 10^−6 cm/s | 31 10^−6 cm/s | 1.4 |  |  | 1 to 5 µM |  |  | 5 to 20 µM |  |  |  |  |
| CCC1(c2ccccc2)C2=C(CC3(CCC3)CC2=O)Nc2ncccc21 (single isomer, unassigned) [Compound 110B] |  |  |  |  | 1.7 min | 13 10^−6 cm/s | 27 10^−6 cm/s | 2.1 |  |  |  |  |  |  |  |  |  |  |
| CCC1(c2ccccc2)C2=C(CC(C)(C)CC2=O)Nc2ncc(F)cc21 (single isomer, unassigned) [Compound 114A] |  |  |  |  | 37 min | 10 10^−6 cm/s | 20 10^−6 cm/s | 2.0 | ≤ 0.1 µM | ≤ 0.1 µM | 0.1 to 1 µM | ≤ 0.1 µM | ≤ 0.1 µM | 1 to 5 µM | 49 min | 23 10^−6 cm/s | 16 10^−6 cm/s | 0.68 |
| CCC1(c2ccccc2)C2=C(CC(C)(C)CC2=O)Nc2ncc(F)cc21 (single isomer, unassigned) [Compound 114B] |  |  |  |  | 1.7 min | 12 10^−6 cm/s | 24 10^−6 cm/s | 2.1 |  |  |  |  |  |  |  |  |  |  |
| CC1(C)CC(=O)C2=C(C1)Nc1nccc(C(F)(F)F)c1C2(C)c1ccccc1 (single isomer, unassigned) [Compound 127A] |  |  |  |  |  |  |  |  |  |  | 0.1 to 1 µM |  |  | 0.1 to 1 µM | 8.3 min | 17 10^−6 cm/s | 8.7 10^−6 cm/s | 0.50 |
| CC1(C)CC(=O)C2=C(C1)Nc1ncc(C(F)(F)F)cc1C2(C)c1ccccc1 (single isomer, unassigned) [Compound 128B] |  |  |  |  |  |  |  |  |  |  | 1 to 5 µM |  |  | 1 to 5 µM | >145 min | 20 10^−6 cm/s | 10 10^−6 cm/s | 0.53 |
| CCC1(c2ccccc2)C2=C(CC(C)(C)CC2=O)Nc2ncc(C(F)(F)F)cc21 (single isomer, unassigned) [Compound 133B] |  |  |  |  | 73 min | 11 10^−6 cm/s | 16 10^−6 cm/s | 1.5 |  |  |  |  |  |  |  |  |  |  |
